Consider 13 compounds from patent US20250195521A1 (Revolution Medicines, Inc., priority 2020, published 2025).

Where two headings read alike, the source gives them in different places.

For data set [1] the following is noted: 18-membered ring.
The target in data set [2] is KRAS G12S binding to BRAF RBD (Homo sapiens (Human), UniProt P01116+P62937, G12S). The data set can be described thus: Ras-Raf disruption/FRET/MOA assay, KRAS G12S. In kind it is biochemical. From the text:
(§1) Note—The following protocol describes a procedure for monitoring disruption of K-Ras G12C(GMP-PNP) binding to BRAF^RBD by a compound of the invention. This protocol may also be executed substituting other Ras proteins or nucleotides.
(§2) The purpose of this biochemical assay was to measure the ability of test compounds to facilitate ternary complex formation between a nucleotide-loaded K-Ras isoform and Cyclophilin A; the resulting ternary complex disrupts binding to a BRAF^RBD construct, inhibiting K-Ras signaling through a RAF effector. Data is reported as IC50 values.
(§3) Compound was present in plate wells as a 10-point 3-fold dilution series starting at a final concentration of 30 μM. After incubation at 25° C. for 3 hours, a mixture of Anti-His Eu—W1024 and anti-GST allophycocyanin was then added to assay sample wells at final concentrations of 10 nM and 50 nM, respectively, and the reaction incubated for an additional 1.5 hours. […] Compounds that facilitate disruption of a K-Ras: RAF complex were identified as those eliciting a decrease in the TR-FRET ratio relative to DMSO control wells.

In data set [3] the target is K-Ras G12C(GMP-PNP) binding to BRAF RBD (Homo sapiens (Human), UniProt P01116+P62937, G12C). The data set can be described thus: Disruption of BRAF RBD interaction with K-Ras (FRET / MOA assay), K-Ras G12C. In kind it is biochemical. The settings on record: read-out: KRAS G12C FRET IC50. In outline: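 Incubation of compound (up to 30 μM final, 3-fold steps) with GMP-PNP-type loaded Ras isoform, cyclophilin A and BRAF RBD ran 3 h at 25° C, followed by 1.5 h with detection antibodies. Disruption appears as a reduced TR-FRET ratio compared with DMSO controls, expressed as IC50.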
Chain of K-Ras G12C(GMP-PNP) binding to BRAF RBD (P01116 other isoform, or with tags, fused parts or gaps G12C): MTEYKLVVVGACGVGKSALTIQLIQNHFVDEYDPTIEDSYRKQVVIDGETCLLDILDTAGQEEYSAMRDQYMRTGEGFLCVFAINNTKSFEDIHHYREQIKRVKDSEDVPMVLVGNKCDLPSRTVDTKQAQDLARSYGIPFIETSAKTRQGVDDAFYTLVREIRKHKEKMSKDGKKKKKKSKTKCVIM
Chain of K-Ras G12C(GMP-PNP) binding to BRAF RBD (P62937 whole entry, canonical isoform): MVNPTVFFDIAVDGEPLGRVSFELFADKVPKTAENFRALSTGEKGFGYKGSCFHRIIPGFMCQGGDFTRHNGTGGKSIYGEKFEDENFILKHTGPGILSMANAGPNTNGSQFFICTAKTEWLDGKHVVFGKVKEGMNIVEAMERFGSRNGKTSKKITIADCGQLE

The target of data set [4] is KRAS WT binding to BRAF RBD (Homo sapiens (Human), UniProt P01116+P62937). The data set can be described thus: Ras-Raf disruption/FRET/MOA assay, KRAS WT. In kind it is biochemical.
Chain of KRAS WT binding to BRAF RBD (P01116 other isoform, or with tags, fused parts or gaps): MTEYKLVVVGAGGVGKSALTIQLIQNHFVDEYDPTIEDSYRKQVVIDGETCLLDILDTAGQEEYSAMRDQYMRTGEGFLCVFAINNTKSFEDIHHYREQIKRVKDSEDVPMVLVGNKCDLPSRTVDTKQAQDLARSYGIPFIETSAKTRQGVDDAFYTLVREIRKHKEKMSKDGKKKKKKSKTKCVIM
Chain of KRAS WT binding to BRAF RBD (P62937 whole entry, the tested form may be a part): as the sequence (P62937 whole entry, canonical isoform) above
Description: Disruption of B-Raf Ras-binding Domain (BRAF^RBD) Interaction with K-Ras by Compounds of the Invention (also called a FRET assay or an MOA assay)
as §1, §2
as §3, with “In assay buffer containing 25 mM HEPES pH 7.3, 0.002% Tween20, 0.1% BSA, 100 mM NaCl and 5 mM MgCl2, tagless Cyclophilin A, His6-K-Ras-GMPPNP, and GST-BRAF^RBD were combined in a 384-well assay plate at final concentrations of 25 μM, 12.5 nM and 50 nM, respectively. Compound was” for “Compound was”

For data set [5], the system named is Capan-1 cells (K-Ras G12V). Nature of the data set: CellTiter-Glo cell viability, Capan-1. In kind it is cell-based, human. The settings on record: Homo sapiens, CAPAN-1, 120 h, K-Ras G12V, 5-day treatment; read-out: Capan-1 Cell Viability IC50. The procedure, abridged: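 Compounds were dispensed directly onto seeded cells and incubated until day 5, then plates were equilibrated at room temperature for about 30 min before CellTiter-Glo luminescence readout. Signals were normalized as (sample/average DMSO)×100 and fitted with a four-parameter logistic model.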
A general note: In ATP-based viability assays light output follows the ATP content of the culture.

The subject of another data set is NCI-H358 (K-Ras G12C). Nature of the data set: CellTiter-Glo cell viability assay, NCI-H358. Particulars: Homo sapiens, NCI-H358, 120 h, 5-day treatment; read-out: H358 Cell Viability assay data (K-Ras G12C, IC50). Type of data set: cell-based, human. The procedure, abridged: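 NCI-H358 cells were treated with test compounds dispensed directly into the assay wells and incubated until day 5. Viability was then read by CellTiter-Glo luminescence after a ~30 min room-temperature equilibration, normalized to the DMSO average (×100), and fit with a four-parameter logistic curve.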

For data set [6], the target named is NRAS G12C binding to BRAF RBD (Homo sapiens (Human), UniProt P01111+P62937, G12C). The data set can be described thus: Ras-Raf disruption/FRET/MOA assay, NRAS G12C. Type of data set: biochemical.
Chain of NRAS G12C binding to BRAF RBD (P01111 whole entry G12C): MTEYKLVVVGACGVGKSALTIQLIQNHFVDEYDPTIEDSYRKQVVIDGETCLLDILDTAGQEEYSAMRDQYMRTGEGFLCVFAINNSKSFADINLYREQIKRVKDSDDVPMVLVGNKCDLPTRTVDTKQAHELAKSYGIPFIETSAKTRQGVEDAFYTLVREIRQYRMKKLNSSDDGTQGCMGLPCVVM
Chain of NRAS G12C binding to BRAF RBD (P62937 whole entry): as the sequence (P62937 whole entry, canonical isoform) above
Description: as §1, §2, §3

For data set [7], the target named is KRAS G13D binding to BRAF RBD (Homo sapiens (Human), UniProt P01116+P62937, G13D). The data set can be described thus: Ras-Raf disruption/FRET/MOA assay, KRAS G13D. In kind it is biochemical.
Chain of KRAS G13D binding to BRAF RBD (P01116 other isoform, or with tags, fused parts or gaps G13D): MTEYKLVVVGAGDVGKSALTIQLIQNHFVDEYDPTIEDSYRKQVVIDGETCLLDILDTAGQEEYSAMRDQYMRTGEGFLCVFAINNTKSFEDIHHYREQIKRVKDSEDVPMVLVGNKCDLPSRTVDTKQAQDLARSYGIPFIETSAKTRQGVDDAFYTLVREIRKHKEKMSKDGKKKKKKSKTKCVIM
Chain of KRAS G13D binding to BRAF RBD (P62937 whole entry): as the sequence (P62937 whole entry, canonical isoform) above
Description: as §1, §2, §3

Data set [8] relates to K-Ras G12C (NCI-H358 cells). Nature of the data set: Potency assay: pERK in NCI-H358 cells. Type of data set: cell-based, human. Particulars: Homo sapiens; NCI-H358 cells, 4 hours; read-out: pERK EC50 (H358 KRAS G12C). In outline:
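Cells plated the day before were exposed for 4 h at 37° C, 5% CO2 to a 10-point, 3-fold DMSO dilution series (10 mM top stock), in duplicate. Phospho-ERK was read by AlphaLISA SureFire Ultra or by In-Cell Western with DRAQ5 DNA stain, and IC50 came from a 4-parameter sigmoidal fit.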

Chain of KRAS G12S binding to BRAF RBD (P01116 other isoform, or with tags, fused parts or gaps G12S): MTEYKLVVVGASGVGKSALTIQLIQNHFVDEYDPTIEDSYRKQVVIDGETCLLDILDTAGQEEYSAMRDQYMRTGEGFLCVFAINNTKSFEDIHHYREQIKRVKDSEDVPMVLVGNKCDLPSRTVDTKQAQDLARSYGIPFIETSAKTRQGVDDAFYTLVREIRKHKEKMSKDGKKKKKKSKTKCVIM
Chain of KRAS G12S binding to BRAF RBD (P62937 whole entry): as the sequence (P62937 whole entry, canonical isoform) above

The compound `CCn1c(-c2cccnc2[C@H](C)OC)c2c3cc(ccc31)-c1csc(n1)C[C@H](NC(=O)OC(C)(C)C)C(=O)N1CCC[C@H](N1)C(=O)OCC(C)(C)C2` yielded a ring closure, isolated yield in data set [1] (from CCn1c(-c2cccnc2[C@H](C)OC)c(CC(C)(C)CO)c2cc(-c3csc(C[C@H](NC(=O)OC(C)(C)C)C(=O)N4CCC[C@@H](C(=O)O)N4)n3)ccc21, ester bond, EDCI/HOBt/DIEA, DCM, 12.65 mM, 16.0 h) of 81.1%.
In the case of `CCn1c(-c2cccnc2[C@H](C)OC)c2c3cc(ccc31)-c1csc(n1)C[C@H](NC(=O)OC(C)(C)C)C(=O)N1CC[C@H](C)[C@H](N1)C(=O)OCC(C)(C)C2`, the ring closure, isolated yield in data set [1] (from CCn1c(-c2cccnc2[C@H](C)OC)c(CC(C)(C)COC(=O)[C@H]2NN(C(=O)[C@H](Cc3nc(Br)cs3)NC(=O)OC(C)(C)C)CC[C@@H]2C)c2cc(B3OC(C)(C)C(C)(C)O3)ccc21, cc_pd bond, Pd(DtBPF)Cl2/K3PO4, dioxane/H2O 5:1, 17.5 mM, 60.0 °C, 1.0 h) is 44.7%.
As to `CCn1c(-c2cccnc2[C@H](C)OC)c2c3cc(ccc31)N1CCC[C@@H](C[C@H](NC(=O)OCc3ccccc3)C(=O)N3CCC[C@H](N3)C(=O)OCC(C)(C)C2)C1`, in data set [1] (from CCn1c(-c2cccnc2[C@H](C)OC)c(CC(C)(C)CO)c2cc(N3CCC[C@@H](C[C@H](NC(=O)OCc4ccccc4)C(=O)N4CCC[C@@H](C(=O)O)N4)C3)ccc21, ester bond, EDCI/HOBt/DIEA, DCM, 36.7 mM, 25.0 °C, 6.0 h), the ring closure, isolated yield is 36%.
As to `CCn1c(-c2cnccc2COC)c2c3cc(ccc31)-c1cc(O)cc(c1)C[C@H](NC(=O)[C@H](C(C)C)N(C)C(=O)O[C@H]1CCOC1)C(=O)N1CCC[C@H](N1)C(=O)OCC(C)(C)C2` [Compound A260], the IC50 (usually the concentration needed to halve the response being measured) in data set [2] was 10 to 100 nM; in [3], 10 to 100 nM; in [4], 10 to 100 nM; in data set [5] it was 1 to 10 µM; in the data set with NCI-H358 (K-Ras G12C), below 10 nM.
For the compound `C/C=C/S(=O)(=O)N1CC[C@H](C(=O)N(C)[C@H](C(=O)N[C@H]2Cc3cc(O)cc(c3)-c3ccc4c(c3)c(c(-c3ccncc3[C@H](C)OC)n4CC)CC(C)(C)COC(=O)[C@@H]3CCCN(N3)C2=O)C(C)C)C1` [Compound A280], the IC50 in [6] was in the range of 100 to 1000 nM; in [7] it was 100 to 1000 nM; in data set [3], 10 to 100 nM; in data set [4], 10 to 100 nM; in the data set on NCI-H358 (K-Ras G12C), 10 to 100 nM. The EC50 (in general, the concentration that produces a half-maximal response) in [8] is below 5 µM.
Regarding `CCn1c(-c2cccnc2[C@H](C)OC)c2c3cc(ccc31)-c1csc(n1)C[C@H](NC(=O)[C@H](C(C)C)N(C)C(=O)N1CC(C#N)C1)C(=O)N1CCC[C@H](N1)C(=O)OCC(C)(C)C2` [Compound A382], the IC50 was 10 to 100 nM in data set [2], 10 to 100 nM in data set [4] and below 10 nM in the data set with NCI-H358 (K-Ras G12C).
Take `C=CC(=O)N1CC[C@H](C(=O)N(C)[C@H](C(=O)N[C@H]2Cc3csc(n3)-c3ccc4c(c3)c(c(-c3cc(N5CCN(C)CC5)cnc3[C@H](C)OC)n4CC(C)(F)F)CC(C)(C)COC(=O)[C@@H]3CCCN(N3)C2=O)C(C)C)C1` [Compound A410]: the IC50 in data set [6] is 10 to 100 nM; in data set [7], 100 to 1000 nM; in data set [3] it was 10 to 100 nM; in the data set on NCI-H358 (K-Ras G12C), below 10 nM. Besides, the EC50 in data set [8] was below 5 µM.
As to `CCn1c(-c2cc(C3CCN(C)CC3)cnc2[C@H](C)OC)c2c3cc(ccc31)-c1cc(O)cc(c1)C[C@H](NC(=O)[C@H](C(C)C)N(C)C(=O)[C@@H]1OCC[C@@H]1c1ccccc1)C(=O)N1CCC[C@H](N1)C(=O)OCC(C)(C)C2` [Compound A577], the IC50 is 10 to 100 nM in data set [2] and below 10 nM in the data set on NCI-H358 (K-Ras G12C). Also, the EC50 in data set [8] is below 5 µM.
On to `CCn1c(-c2cc(N3CCN(C)CC3)cnc2[C@H](C)OC)c2c3cc(ccc31)-c1cc(O)cc(c1)C[C@H](NC(=O)[C@H](C(C)C)N(C)C(=O)[C@@H]1OCC[C@@H]1c1ccccc1)C(=O)N1CCC[C@H](N1)C(=O)OCC(C)(C)C2` [Compound A594], for which, in [8], the EC50 was below 5 µM. In addition, the IC50 in data set [3] was 10 to 100 nM; in data set [4], 10 to 100 nM; in the data set on NCI-H358 (K-Ras G12C) it was below 10 nM.
As to “(2S,6S)—N-((6^3S,3S,4S,Z)-3-(2-(dimethylamino) ethoxy)-1^1-ethyl-1^2-(2-((S)-1-methoxyethyl) pyridin-3-yl)-10, 10-dimethyl-5,7-dioxo-6^1,6^2,6^3,6^4,6^5,6^6-hexahydro-1^1H-8-oxa-2 (4,2)-thiazola-1 (5,3)-indola-6 (1,3)-pyridazinacycloundecaphane-4-yl)-2,4,6-trimethylpiperazine-1-carboxamide”, in [1] (cc_pd bond, Pd(dtbpf)Cl2/K3PO4, toluene/1,4-dioxane/H2O 3:1:1, 57.0 mM, 60.0 °C), the ring closure, isolated yield came out at 50%.
Regarding “(6^3S,3S,4S,Z)-4-(dibenzylamino)-1^1-ethyl-3-methoxy-1^2-(2-((S)-1-methoxyethyl) pyridin-3-yl)-10, 10-dimethyl-6^1,6^2,6^3,6^4,6^5,6^6-hexahydro-1^1H-8-oxa-2 (4,2)-thiazola-1 (5,3)-indola-6 (1,3)-pyridazinacycloundecaphane-5,7-dione”, the ring closure, isolated yield in [1] (cc_pd bond, Pd(DtBPF)Cl2/K3PO4, dioxane/H2O 5:1, 40.0 mM, 80.0 °C) is 44.4%.
In data set [1] (cc_pd bond, Pd(DtBPF)Cl2/K3PO4, toluene/1,4-dioxane/H2O (3:1:1), […], 80.0 °C), “(9H-fluoren-9-yl) methyl (1R,5S,7r)-7-(5-((6^3S,3S,4S,Z)-4-((tert-butoxycarbonyl) amino)-3-ethoxy-1^1-ethyl-10, 10-dimethyl-5,7-dioxo-6^1,6^2,6^3,6^4,6^5,6^6-hexahydro-1^1H-8-oxa-2 (4,2)-thiazola-1 (5,3)-indola-6 (1,3)-pyridazinacycloundecaphane-12-yl)-6-((S)-1-methoxyethyl) pyridin-3-yl)-3-oxa-9-azabicyclo[3.3.1]nonane-9-carboxylate” showed a ring closure, isolated yield of 65%.
The compound “(9H-fluoren-9-yl) methyl ((6^3S,4S,Z)-3-(dimethylamino)-1^1-ethyl-1^2-(2-((S)-1-methoxyethyl) pyridin-3-yl)-10, 10-dimethyl-5,7-dioxo-6^1,6^2,6^3,6^4,6^5,6^6-hexahydro-1^1H-8-oxa-2 (4,2)-thiazola-1 (5,3)-indola-6 (1,3)-pyridazinacycloundecaphane-4-yl) carbamate” gave a ring closure, isolated yield in data set [1] (cc_pd bond, Pd(dtbpf)Cl2/K3PO4, toluene/1,4-dioxane/H2O 3:1:1, 27.3 mM, 60.0 °C) of 19%.
